Data on 60 compounds can be found in patent US6727076B2 (priority 1995, dated 2004).

“Also recorded” adds a separate entry of the source. Peptide text beside a SMILES is read from it.

Experiment [1] relates to T. harzianum DAOM 190830. It is filed as cell-based, Trichoderma harzianum.
Experiment [2] has as its system E. coli 287 (ATCC #11775). It counts as cell-based.
The subject of experiment [3] is E. coli MG1655. It is filed as cell-based.
Experiment [4] relates to E. coli MG1655. It counts as cell-based. The source holds these as a separate data set.

With `C[C@H](O)[C@@H](O)[C@@H](O)[C@H](O)C=O` [L-fucose], the “carbon source utilization result” value in experiment [1] and in experiment [2] was “positive” each time.
As to `O=C1CC[C@@H](C(=O)O)N1` [L-pyroglutamic acid], the “carbon source utilization result” value in experiment [1] is given as “positive”; in experiment [2] it was “positive/negative”. In addition, in experiment [3], the “suitability as nitrogen source (growth, purple color)” value (from here on “suitability as nitrogen source”) was “not suitable”.
For the compound `OCC(O)CO` [Glycerol], the “carbon source utilization result” value in experiment [1] and in experiment [2] was “positive” throughout.
As for `O=C[C@H](O)[C@@H](O)[C@H](O[C@@H]1O[C@H](CO)[C@@H](O)[C@H](O)[C@H]1O)[C@H](O)CO` [Cellobiose], the “carbon source utilization result” value in experiment [1] is “positive”; in experiment [2], “negative”.
The corresponding values for `CC(O)CC(=O)O` (stereo not drawn) [β-hydroxybutyric acid] are “positive” and “negative”.
In the case of `C[C@H](N)C(=O)NCC(=O)O` [L-alanyl-glycine] (H-Ala-Gly-OH), the “carbon source utilization result” value in experiment [1] and in experiment [2] was “positive” throughout. The “suitability as nitrogen source” value in experiment [3] was “positive”.
As for `CSCC[C@H](N)C(=O)O` [L-methionine], the “suitability as sulfur source (growth, purple color)” value (“suitability as sulfur source” for short) in experiment [4] was “positive”. For the same compound, the “suitability as nitrogen source” value in experiment [3] was “not suitable”.
In the case of `N[C@@H](Cc1ccccc1)C(=O)O` [L-phenylalanine], the results for the “carbon source utilization result” value in experiment [1] and in experiment [2] were “positive” and “positive/negative”, respectively. The “suitability as nitrogen source” value in experiment [3] is given as “not suitable”.
Consider `O=C(O)CCCCCCCCC(=O)O` [sebacic acid], for which the “carbon source utilization result” value is recorded as “positive” in experiment [1] and “negative” in experiment [2].
On to `O=C(O)CCC(=O)C(=O)O` [α-ketoglutaric acid], for which the “carbon source utilization result” value in experiment [1] is “positive”.
With `OC[C@@H](O)C(O)[C@H](O)CO` [D-arabitol], the entries for the “carbon source utilization result” value in experiment [1] and in experiment [2] were “positive” and “negative”, respectively.
On to `NC(=O)CCC(=O)O` [succinamic acid], for which the “carbon source utilization result” value in experiment [1] is “positive”.
On to `O=C(O)CC(O)(CC(=O)O)C(=O)O` [Citric acid], for which the “carbon source utilization result” value in experiment [1] is on record as “positive”; in experiment [2] it was “negative”.
With `N[C@@H](CCC(=O)N[C@@H](CS)C(=O)NCC(=O)O)C(=O)O` [glutathione (reduced form)], the “suitability as sulfur source” value in experiment [4] is “positive”. The “suitability as nitrogen source” value in experiment [3] is given as “not suitable”.
Take gentiobiose: the “carbon source utilization result” value is “positive” in experiment [1] and “positive/negative” in experiment [2].
For `N[C@@H](CS)C(=O)O` [L-cysteine], the “suitability as sulfur source” value in experiment [4] is “positive”. In addition, in experiment [3], the “suitability as nitrogen source” value is recorded as “not suitable”.
In the case of `OC[C@@H](O)[C@@H](O)[C@H](O)[C@H](O)CO` [D-mannitol], the “carbon source utilization result” value in experiment [1] and in experiment [2] was “positive” in each case.
As to `N[C@H](COP(=O)(O)O)C(=O)O` [O-phospho-D-serine], the “suitability as phosphorus source (growth, purple color)” value (shortened to “suitability as phosphorus source”) in experiment [4] is “positive”.
Consider `NCCCC(=O)O` [γ-aminobutyric acid], for which the “carbon source utilization result” value in experiment [1] is “positive”. In experiment [3], the “suitability as nitrogen source” value is reported as “weak positive; also recorded: not suitable”.
As to `O=C(CO)[C@@H](O)[C@H](O)[C@H](O)COP(=O)(O)O` [Fructose-6-phosphate], the “suitability as phosphorus source” value in experiment [4] is recorded as “positive”.
Turning to `O=P(O)(O)CP(=O)(O)O` [methylene diphosphonic acid], in experiment [4], the “suitability as phosphorus source” value was “not suitable”.
For the compound `O=S1(=O)CCCC1` [tetramethylene sulfone], the “suitability as sulfur source” value in experiment [4] was “not suitable”.
Still for that read-out and setting: next, `CSCCC(NC(C)=O)C(=O)O` (racemic) [N-acetyl-DL-methionine]: “positive”; `N[C@@H](CS)C(=O)NCC(=O)O` [cys-gly]: “positive”.
Consider `O=C(O)[C@H](O)[C@@H](O)[C@H](O)[C@H](O)COP(=O)(O)O` [6-phosphogluconic acid], for which, in experiment [4], the “suitability as phosphorus source” value is recorded as “positive”.
As to `O=S(O)(O)=S` [thiosulfate], the “suitability as sulfur source” value in experiment [4] is “positive”.
Turning to glycogen, in experiment [1], the “carbon source utilization result” value is recorded as “positive”.
On to `O=C[C@@H](O)[C@@H](O)[C@H](O)[C@H](O)COP(=O)(O)O` [mannose 6-phosphate], for which the “suitability as phosphorus source” value in experiment [4] was “positive”.
Same read-out and setting: next, `Cc1cn([C@H]2C[C@H](OP(=O)(O)O)[C@@H](CO)O2)c(=O)[nH]c1=O` [thymidine 3′-monophosphate]: “positive”; `Cc1cn([C@H]2C[C@H](O)[C@@H](COP(=O)(O)O)O2)c(=O)[nH]c1=O` [thymidine 5′-monophosphate]: “positive”.
Consider `Nc1nc2c(ncn2[C@@H]2O[C@H](CO)[C@@H](OP(=O)(O)O)[C@H]2O)c(=O)[nH]1` [guanosine 3′-monophosphate], for which the “suitability as phosphorus source” value in experiment [4] is recorded as “positive”.
Same read-out and setting: next, `O=C(O)COP(=O)(O)O` [phosphoglycolic acid]: “positive”; `CN(CC(=O)O)C(=N)NP(=O)(O)O` [phosphocreatine]: “positive”; `O=P(O)(O)O[C@H]1[C@H](OP(=O)(O)O)[C@@H](OP(=O)(O)O)[C@H](OP(=O)(O)O)[C@@H](OP(=O)(O)O)[C@H]1OP(=O)(O)O` [inositol hexaphosphate]: “not suitable”.
On to `COC(=O)C(C)=O` [Methyl pyruvate], for which the “carbon source utilization result” value in experiment [1] and in experiment [2] was “positive” in each case.
Turning to `O=S(=O)(O)CCO` [isethionate], in experiment [4], the “suitability as sulfur source” value was “positive”.
Consider `CCSCCC(N)C(=O)O` (racemic) [DL-ethionine], for which the “suitability as sulfur source” value in experiment [4] is “not suitable”.
On to `O=C[C@H](O)[C@@H](O)[C@H](O)[C@H](O)COP(=O)(O)O` [Glucose-6-phosphate], for which the “suitability as phosphorus source” value in experiment [4] is reported as “positive”. Also, the “carbon source utilization result” value in experiment [2] is “positive”.
Turning to `O=P(O)(O)OC(CO)CO` [β-glycerophosphate], the “suitability as phosphorus source” value in experiment [4] is given as “positive”.
For `O=C[C@@H](O)[C@@H](O)[C@H](O)[C@H](O)CO` [D-mannose], the “carbon source utilization result” value in experiment [1] and in experiment [2] was “positive” throughout.
For the compound `O=C(O)[C@]1(O)C[C@@H](O)[C@@H](O)[C@H](O)C1` [quinic acid], the “carbon source utilization result” value in experiment [1] was “positive”; in experiment [2] it was “negative”.
With `OP(O)(O)=S` [thiophosphate], in experiment [4], the “suitability as phosphorus source” value is reported as “positive” and the “suitability as sulfur source” value was “positive”.
For `C[C@H](CCC(=O)NCCS(=O)(=O)O)[C@H]1CC[C@H]2[C@@H]3[C@H](O)C[C@@H]4C[C@H](O)CC[C@]4(C)[C@H]3C[C@H](O)[C@]12C` [taurocholic acid], the “suitability as sulfur source” value in experiment [4] is given as “positive”.
Consider phosphatidyl glycerol, for which the “suitability as phosphorus source” value in experiment [4] was “not suitable”.
Regarding `NCCC[C@H](N)C(=O)O` [L-ornithine], the “carbon source utilization result” value in experiment [1] is reported as “positive”. Further, the “suitability as nitrogen source” value in experiment [3] is reported as “not suitable”.
Turning to `OC[C@H]1O[C@H](O)[C@H](O)[C@@H](O)[C@@H]1O` [α-D-glucose], the “carbon source utilization result” value in experiment [1] and in experiment [2] was “positive” throughout.
Turning to `O=C(CO)[C@@H](O)[C@H](O)[C@H](O)CO` [D-fructose], the “carbon source utilization result” value in experiment [1] and in experiment [2] was “positive” throughout.
As for `N[C@@H](Cc1ccc(OP(=O)(O)O)cc1)C(=O)O` [O-phospho-L-tyrosine], in experiment [4], the “suitability as phosphorus source” value is “positive”.
With `N[C@@H](CCSC[C@H](N)C(=O)O)C(=O)O` [cystathionine], the “suitability as sulfur source” value in experiment [4] is listed as “positive”.
For the compound `N[C@@H](COP(=O)(O)O)C(=O)O` [O-phospho-L-serine], the “suitability as phosphorus source” value in experiment [4] was “positive”.
On to `O=C[C@H](O)[C@@H](O)[C@@H](O)[C@H](O)CO` [D-galactose], for which the “carbon source utilization result” value in experiment [1] and in experiment [2] was “positive” each time.
As to `O=C(O)CC(Br)C(=O)O` (stereo not drawn) [Bromo succinic acid], the “carbon source utilization result” value in experiment [1] and in experiment [2] was “positive” in each case.
As for dextrin, the “carbon source utilization result” value in experiment [1] and in experiment [2] was “positive” throughout.
`O=c1ccn([C@@H]2O[C@H](CO)[C@@H](O)[C@H]2OP(=O)(O)O)c(=O)[nH]1` [uridine 2′-monophosphate]: the “suitability as phosphorus source” value in experiment [4] is given as “positive”.
`O=C[C@H](O)[C@@H](O)[C@@H](O)[C@H](O)C(=O)O` [D-galacturonic acid]: the “carbon source utilization result” value in experiment [1] and in experiment [2] was “positive” each time.
In the case of `O=C[C@H](O)[C@@H](O)[C@@H](O)CO` [L-arabinose], the “carbon source utilization result” value in experiment [1] and in experiment [2] was “positive” throughout.
For `NCCS(=O)(=O)O` [taurine], in experiment [4], the “suitability as sulfur source” value is given as “positive”.
As for `N[C@H]1C(OP(=O)(O)O)O[C@H](CO)[C@@H](O)[C@@H]1O` (stereo partly drawn) [glucosamine 1-phosphate], the “suitability as phosphorus source” value in experiment [4] is “positive”.
As for `O=S(=O)(O)SSS(=O)(=O)O` [tetrathionate], in experiment [4], the “suitability as sulfur source” value is reported as “positive”.
With `O=C(O)CCC(=O)O` [Succinic acid], the “carbon source utilization result” value in experiment [1] and in experiment [2] was “positive” throughout.
